Reference: patent US9770025B2, “Fungicidal compositions” (Syngenta Participations AG, priority 2013, dated 2017)

What was measured:
Format in all cases: cell-based
Alternaria solani = Alternaria solani liquid culture growth inhibition; settings: for (B2) Inhibition (%) / (B4) Inhibition (%) / (B5) Inhibition (%): PDB; for (B2) Inhibition (%): Table 9; for (B4) Inhibition (%): Table 11; for (B5) Inhibition (%): Table 13
Description: (§1) Liquid Culture Tests in Well Plates
Mycelia fragments or conidia suspensions of a fungus, prepared either freshly from liquid cultures of the fungus or from cryogenic storage, were directly mixed into nutrient broth. DMSO solutions of the test compound (max. 10 mg/ml) was diluted with 0.025% Tween20 by factor 50 and 10 μl of this solution was pipetted into a microtiter plate (96-well format). […] The test plates were incubated in the dark at 24° C. and 96% rh. The inhibition of fungal growth was determined photometrically and visually after 2-4 days, depending on the pathosystem, and percent antifungal activity relative to the untreated check was calculated.
Alternaria solanil/Liquid Culture:
(§2) Conidia of the fungus from cryogenic storage were directly mixed into nutrient broth (PDB potato dextrose broth). After placing a (DMSO) solution of test compound into a microtiter plate (96-well format), the nutrient broth containing the fungal spores was added.

[1] = system: Mycosphaerella graminicola (Septoria tritici); experiment: Mycosphaerella graminicola (Septoria tritici) liquid culture growth inhibition; settings: for (B4) Inhibition (%) / (B5) Inhibition (%): PDB; for (B4) Inhibition (%): Table 12; for (B5) Inhibition (%): Table 14
Description: as §1
(§3) Mycelia fragments or conidia suspensions of a fungus, prepared either freshly from liquid cultures of the fungus or from cryogenic storage, were directly mixed into nutrient broth. DMSO solutions of the test compound (max. 10 mg/ml) was diluted with 0.025% Tween20 by factor 50 and 10 μl of this solution was pipetted into a microtiter plate (96-well format). The nutrient broth containing the fungal spores/mycelia fragments was then added to give an end concentration of the tested compound. The test plates were incubated in the dark at 24° C. and 96% rh. The inhibition of fungal growth was determined photometrically and visually after 2-4 days, depending on the pathosystem, and percent antifungal activity relative to the untreated check was calculated.
Mycosphaerella graminicola (Septoria tritici)/Liquid Culture:
as §2

Pythium ultimum = Pythium ultimum (seedling damping off) liquid culture growth inhibition; settings: 0.0625 ppm; PDB; Table 10
Description: as §1, §3
Pythium ultimum Seedling Damping Off)/Liquid Culture:
Mycelia fragments and oospores of a newly grown liquid culture of the fungus were directly mixed into nutrient broth (PDB potato dextrose broth). After placing a (DMSO) solution of the test compounds into a microtiter plate (96-well format), the nutrient broth containing the fungal mycelia/spore mixture was added.

[2] = system: Botryotinia fuckeliana (Botrytis cinerea); experiment: Botryotinia fuckeliana (Botrytis cinerea) liquid culture growth inhibition; settings: in Vogels Broth
Description: as §1, §3
Botryotinia fuckeliana (Botrytis cinerea)/Liquid Culture:
Conidia of the fungus from cryogenic storage were directly mixed into nutrient broth (Vogels broth). After placing a (DMSO) solution of test compound into a microtiter plate (96-well format), the nutrient broth containing the fungal spores was added.

Fusarium culmorum = Fusarium culmorum liquid culture growth inhibition; settings: in PDB
Description: as §1, §3
Fusarium culmorum/Liquid Culture:
as §2

[3] = system: Monographella nivalis (Microdochium nivale); experiment: Monographella nivalis (Microdochium nivale) liquid culture growth inhibition
Description: as §1, §3
Monographella nivalis (Microdochium nivale)/Liquid Culture:
as §2

Gaeumannomyces graminis = Gaeumannomyces graminis liquid culture growth inhibition; settings: in PDB
Description: as §1, §3
Gaeumannomyces graminis/Liquid Culture:
Mycelial fragments of the fungus from cryogenic storage were directly mixed into nutrient broth (PDB potato dextrose broth). After placing a (DMSO) solution of test compound into a microtiter plate (96-well format), the nutrient broth containing the fungal spores was added.

[4] = Zymoseptoria tritici, read-out: (B10) Inhibition (%)
[5] = Monographella nivalis, read-out: (B10) Inhibition (%)

C=CCSC(=O)n1c(N)c(-c2ccccc2C)c(=O)n1C(C)C [(B2), fenpyrazamine]
(B2) Inhibition (%) (Alternaria solani; 0.0313 ppm): 0%
(B2) Inhibition (%) (Alternaria solani; 0.0625 ppm): 1%

Cc1cc(C(F)(F)F)nn1CC(=O)N1CCC(c2nc(C3=NOC(c4c(F)cccc4F)C3)cs2)CC1 (stereo not drawn) [(B4), oxathiapiprolin]
(B4) Inhibition (%) (Alternaria solani; 0.0039 ppm): 0%
(B4) Inhibition (%) (Alternaria solani; 0.0078 ppm): 4%
(B4) Inhibition (%) (Alternaria solani; 0.0156 ppm): 0%
(B4) Inhibition (%) (Alternaria solani; 0.0313 ppm): 0%
(B4) Inhibition (%) ([1]; 0.0313 ppm): 8%
(B4) Inhibition (%) ([1]; 0.0625 ppm): 4%
(B4) Inhibition (%) (Pythium ultimum): 61%

Cc1ccc(C(=O)NC[C@@H](NC(=O)OCC(F)(F)F)C(C)C)cc1 [(B5), tolprocarb]
(B5) Inhibition (%) (Alternaria solani; 0.0391 ppm): 0%
(B5) Inhibition (%) (Alternaria solani; 0.0781 ppm): 0%
(B5) Inhibition (%) (Alternaria solani; 0.3125 ppm): 0%
(B5) Inhibition (%) ([1]; 0.0391 ppm): 7%
(B5) Inhibition (%) ([1]; 0.0781 ppm): 1%
(B5) Inhibition (%) ([1]; 0.1563 ppm): 4%
(B5) Inhibition (%) ([1]; 0.6250 ppm): 1%

CO/C=C(/C(=O)OC)c1ccccc1COc1ccc(C(F)(F)F)cc1Cl [(B6), flufenoxystrobin, reference compound]
(B6) Inhibition (%) ([2]; 0.0063 ppm): 17%
(B6) Inhibition (%) ([2]; 0.0125 ppm): 23%
(B6) Inhibition (%) ([2]; 0.0250 ppm): 33%
(B6) Inhibition (%) (Alternaria solani; 0.0016 ppm, in PDB): 6%
(B6) Inhibition (%) (Alternaria solani; 0.0063 ppm, in PDB): 1%
(B6) Inhibition (%) ([1]; 0.0031 ppm, in PDB): 17%
(B6) Inhibition (%) ([1]; 0.0063 ppm, in PDB): 23%
(B6) Inhibition (%) ([1]; 0.0125 ppm, in PDB): 33%
(B6) Inhibition (%) (Fusarium culmorum; 0.0500 ppm): 5%
(B6) Inhibition (%) (Fusarium culmorum; 0.1000 ppm): 3%
(B6) Inhibition (%) (Fusarium culmorum; 0.2000 ppm): 12%
(B6) Inhibition (%) ([3]; 0.0008 ppm, in PDB): 23%
(B6) Inhibition (%) ([3]; 0.0016 ppm, in PDB): 51%

CC1CC(C)(C)c2c(F)ccc(NC(=O)c3cn(C)nc3C(F)F)c21 (stereo not drawn) [(B9)]
inhibition at 0.0039 ppm ([2]; Botrytis cinerea, 0.0039 ppm, read-out: (B9) Inhibition (%)): 14%
inhibition at 0.0078 ppm ([2]; Botrytis cinerea, 0.0078 ppm, read-out: (B9) Inhibition (%)): 19%
inhibition at 0.0156 ppm ([2]; Botrytis cinerea, 0.0156 ppm, read-out: (B9) Inhibition (%)): 31%
inhibition at 0.0313 ppm ([2]; Botrytis cinerea, 0.0313 ppm, read-out: (B9) Inhibition (%)): 52%
inhibition at 0.0078 ppm (Alternaria solani; Alternaria solani, 0.0078 ppm, in PDB, read-out: (B9) Inhibition (%)): 0%
inhibition at 0.0156 ppm (Alternaria solani; Alternaria solani, 0.0156 ppm, in PDB, read-out: (B9) Inhibition (%)): 11%
inhibition at 0.0313 ppm (Alternaria solani; Alternaria solani, 0.0313 ppm, in PDB, read-out: (B9) Inhibition (%)): 5%
inhibition at 0.0625 ppm (Alternaria solani; Alternaria solani, 0.0625 ppm, in PDB, read-out: (B9) Inhibition (%)): 22%
inhibition at 0.0039 ppm ([1]; Zymoseptoria tritici, 0.0039 ppm, in PDB, read-out: (B9) Inhibition (%)): 0%
inhibition at 0.0156 ppm ([1]; Zymoseptoria tritici, 0.0156 ppm, in PDB, read-out: (B9) Inhibition (%)): 0%
inhibition at 0.0313 ppm ([1]; Zymoseptoria tritici, 0.0313 ppm, in PDB, read-out: (B9) Inhibition (%)): 9%
inhibition at 0.0625 ppm ([1]; Zymoseptoria tritici, 0.0625 ppm, in PDB, read-out: (B9) Inhibition (%)): 7%
inhibition at 0.125 ppm ([3]; Monographella nivalis, 0.1250 ppm, in PDB, read-out: (B9) Inhibition (%)): 0%
inhibition at 0.5 ppm ([3]; Monographella nivalis, 0.5000 ppm, in PDB, read-out: (B9) Inhibition (%)): 0%
inhibition at 1 ppm ([3]; Monographella nivalis, 1.0000 ppm, in PDB, read-out: (B9) Inhibition (%)): 10%

CCCCc1c(C)c2ccc(OCc3ccccc3/C(=C\OC)C(=O)OC)cc2oc1=O [(B10), coumoxystrobin, reference compound]
inhibition at 0.0016 ppm [1, 4]: 5%
inhibition at 0.0031 ppm [1, 4]: 13%
inhibition at 0.0063 ppm [1, 4]: 31%
inhibition at 0.05 ppm (Fusarium culmorum; Fusarium culmorum, 0.0500 ppm, read-out: (B10) Inhibition (%)): 12%
inhibition at 0.1 ppm (Fusarium culmorum; Fusarium culmorum, 0.1000 ppm, read-out: (B10) Inhibition (%)): 8%
inhibition at 0.2 ppm (Fusarium culmorum; Fusarium culmorum, 0.2000 ppm, read-out: (B10) Inhibition (%)): 11%
inhibition at 0.0008 ppm [3, 5]: 46%
inhibition at 0.0016 ppm [3, 5]: 81%

CNC(=O)C(OC)c1ccccc1COc1cc(C)ccc1C (stereo not drawn) [(B11), mandestrobin, reference compound]
(B11) Inhibition (%) ([2]; 0.0016 ppm): 5%
(B11) Inhibition (%) ([2]; 0.0250 ppm): 0%
(B11) Inhibition (%) ([2]; 0.0500 ppm): 8%
(B11) Inhibition (%) (Alternaria solani; 0.0008 ppm, in PDB): 0%
(B11) Inhibition (%) (Alternaria solani; 0.0016 ppm, in PDB): 3%
(B11) Inhibition (%) (Alternaria solani; 0.0031 ppm, in PDB): 0%
(B11) Inhibition (%) (Alternaria solani; 0.0063 ppm, in PDB): 12%
(B11) Inhibition (%) (Fusarium culmorum; 0.1000 ppm): 0%
(B11) Inhibition (%) (Fusarium culmorum; 0.2000 ppm): 11%
(B11) Inhibition (%) (Gaeumannomyces graminis; 0.0500 ppm): 17%
(B11) Inhibition (%) (Gaeumannomyces graminis; 0.1000 ppm): 53%
(B11) Inhibition (%) ([3]; 0.0250 ppm, in PDB): 0%

CC(=O)Oc1c(C)c(C)nc2c(F)cc(C(C)(C)C)cc12 [(B12), tebufloquin, reference compound]
(B12) Inhibition (%) ([2]; 0.0313 ppm): 5%
(B12) Inhibition (%) ([2]; 0.1250 ppm): 0%
(B12) Inhibition (%) (Alternaria solani; 0.0156 ppm, in PDB): 0%
(B12) Inhibition (%) (Alternaria solani; 0.0313 ppm, in PDB): 1%
(B12) Inhibition (%) ([3]; 0.2500 ppm, in PDB): 7%
(B12) Inhibition (%) ([3]; 0.5000 ppm, in PDB): 60%

COC(=O)N(OC)c1ccccc1COc1nc(Cl)c(Cl)cc1Cl [(B13), triclopyricarb, reference compound]
(B13) Inhibition (%) ([2]; (B13) triclopyricarb alone at 0.0125 ppm): 8%
(B13) Inhibition (%) ([2]; (B13) triclopyricarb alone at 0.0250 ppm): 18%
(B13) Inhibition (%) (Fusarium culmorum; 0.0500 ppm): 11%
(B13) Inhibition (%) (Fusarium culmorum; 0.1000 ppm): 10%
(B13) Inhibition (%) (Fusarium culmorum; 0.2000 ppm): 11%
(B13) Inhibition (%) ([3]; (B13) triclopyricarb alone at 0.0016 ppm, in PDB): 23%
(B13) Inhibition (%) ([3]; (B13) triclopyricarb alone at 0.0031 ppm, in PDB): 51%

CCN(C)/C=N/c1cc(C)c(Oc2nc(Cc3ccc(Cl)cc3)ns2)cc1C [(B14), N′-[4-[[3-[(4-chlorophenyl)methyl]-1,2,4-thiadiazol-5-yl]oxy]-2,5-dimethylphenyl]-N-ethyl-N-methyl-methanimidamide, reference compound]
inhibition at 0.25 ppm ([3]; Monographella nivalis, (B14) compound of formula IV alone at 0.2500 ppm, in PDB): 40%
